Marks after values point to notes of the source that are not given here.
Assays:
[1] = test system: MTX-naïve adult patients with active, early RA (<3 years); assay: Study J (adalimumab 40 mg eow + MTX vs adalimumab alone vs MTX alone, 2 years): ACR20/50/70/90 response and Major Clinical Response; assay type: in vivo, human; details: for Major Clinical Response (ACR70 for ≧6 continuous months): over 2 years
Procedure: This study was a 2-year, double-blind, active-comparator-controlled Phase III study conducted at 149 sites in North America, Europe, and Australia. […] MTX-naïve adult patients with active, early RA (<3 years) were included in the study. Further inclusion criteria included: SJC≧8 and TJC≧10; ESR≧28 mm/hr or CRP≧1.5 mg/dL; and RF-positivity or at least one joint erosion. […] MTX dosages were rapidly optimized to a maximum of 20 mg weekly.
The co-primary endpoints, comparing MTX alone with the combination at 1 year, were the ACR50 response (using non-responder imputation), and inhibition of radiographic progression, as measured by change in total Sharp score (TSS). In this study, the term “Major Clinical Response” (MCR) meant a continuous ACR70 response for 6 or more consecutive months.
The results of this study were evaluated using multiple criteria for clinical remission. This study (Study J) was a 2-year, double-blind, Phase III study.
Secondary endpoints included DAS28<2.6 at year 1 and Major Clinical Response (MCR=ACR70 response for ≧6 continuous months during a 2-year period).
Study J was a 2-year, double-blind, Phase III study. […] MTX dosages were rapidly optimized to a maximum of 20 mg weekly. Mean changes in total Sharp score (TSS) were measured for patients who achieved American College of Rheumatology (ACR) response (ACR20, ACR50, and ACR70), as well as clinical remission by Disease Activity Score 28 (DAS28<2.6).
At 1 and 2 years, the American College of Rheumatology (ACR) responses (ACR20, ACR50, and ACR70), the Disease Activity Score 28 (DAS28), and the change (Δ) in Total Sharp Score (TSS) were determined for all patients. Results were analyzed for the intention-to-treat (ITT) population using imputation for missing data. Clinical remission was defined as DAS28<2.6. The mean ΔTSS values at 1 year and 2 years (N=791) were determined for patients in each ACR response category (ACR20/50/70) and for patients with DAS28<2.6
Patients in the Ada+MTX and the MTX arms were classified according to level of clinical response (non-responder (<ACR20), ACR20, ACR50, or ACR70) and radiographic progression (Yes or No (ΔTSS≦0.5)). The ΔTSS was analyzed overall, and for ACR subgroups. This included determination of mean ΔTSS and probability plots. Analyses used observed data from patients completing 6 months or 2 years of treatment (no imputation).

[2] = test system: MTX-naïve adult patients with active, early RA (<3 years); assay: Study J: treatment emergent adverse events; details: 2 years
Source text: Study J was a 2-year randomized controlled trial in patients with early RA (disease duration<3 years). Participants in these clinical trials and in other phase Mb studies, were routinely evaluated for safety. Reports of serious adverse events (SAE) were tabulated using MedDRA coding by events per 100-patient-years (E/100PY). SAE rates were compared with respect to disease duration between patients with early (<3 yrs) and long-standing RA.

[3] = week 52 (1 year), non-responder imputation
[4] = 6 months, completers, observed data

Compound | Major Clinical Response (ACR70 for ≧6 continuous months) [1] | ACR70 ([1]; week 52 (1 year)) | ACR90 ([1]; week 52 (1 year)) | ACR20 [1, 3] | ACR50 [1, 3] | ACR20 ([1]; week 104 (2 years)) | ACR50 ([1]; week 104 (2 years)) | ACR70 ([1]; week 104 (2 years)) | ACR90 ([1]; week 104 (2 years)) | Tuberculosis [2] [Events/100-PY] | also measured
adalimumab: human anti-TNF mAb (HUMIRA, Abbott Laboratories), described in U.S. Pat. No. 6,090,382 as D2E7 | 25 % of patients | 26 % of patients | 8 % of patients | 54 % of patients | 42 % of patients | 50 % of patients | 37 % of patients | 28 % of patients | 9 % of patients | 0.0 | –
CN(Cc1cnc2nc(N)nc(N)c2n1)c1ccc(C(=O)N[C@@H](CCC(=O)O)C(=O)O)cc1 [mtx alone, methotrexate] | 27 % of patients | 28 % of patients | 13 % of patients | 63# % of patients | 46 % of patients | 56 % of patients | 43 % of patients | 28 % of patients | 13 % of patients | 0.0 | ACR70 ([1]; 2 years, completers, observed data): 43%; ACR20 [1, 4]: 79.3%; ACR50 [1, 4]: 51.6%; ACR70 [1, 4]: 28.6%; ACR20 ([1]; week 52 (1 year), non-responder imputation, listed as MTX alone): 63 % of patients; All infectious AE [2]: 119 Events/100-PY; Demyelination [2]: 0.0 Events/100-PY; Lymphoma [2]: 0.2 Events/100-PY; Malignancies [2]: 0.9 Events/100-PY; Pancytopenia [2]: 0.2 Events/100-PY; Serious AE [2]: 15.9 Events/100-PY; Serious Infectious AE [2]: 1.6 Events/100-PY

— US20120171123A1, “USES AND COMPOSITIONS FOR TREATMENT OF RHEUMATOID ARTHRITIS” (priority 2006, published 2012)
